Laboratory results published in patent US20240156790A1, “COMPOUNDS, COMPOSITIONS, AND METHODS FOR MODULATING FERROPTOSIS AND TREATING EXCITOTOXIC DISORDERS” (THE TRUSTEES OF COLUMBIA UNIVERSITY IN THE CITY OF NEW YORK, priority 2018, published 2024).
Entries after “also recorded” stand apart in the source; their conditions may differ. Read-outs that look alike come from different tables or passages of the source.

Assay: Microsomal Stability Assay (Examples 6 and 8)
Assay type: in vitro ADME, mouse
Conditions: for microsomal stability / half-life, in words: assessed over two hours; for half-life at 20 µM: CD-1, mouse, liver microsomes
Experimental: (§1) To a 96-well polypropylene plate was added phosphate buffer (182.2 μL, pH 7.4, 100 mM) followed by addition of NADPH-regenerating system solution A (10 μL), and NADPH regenerating system solution B (2 μL) (Corning Gentest 3P NADPH regenerating system solution A (#451220) and B (#451200)). A stock solution of analog (0.8 μL. 5 mM) or fer-1 (positive control) was added and the mixture was warmed to 37° C. for 5 min. Mouse microsomes (CD-1, 20 mg/mL, Life Technologies) (5 μL, thawed in 37° C. water bath before use) were added. The resulting reaction mixture was kept at 37° C. with gentle agitation for the duration of the experiment. At selected time points (0, 1, 5, 10, 20, 30, 60 and 120 min) aliquots (15 μL) were withdrawn from the plate and quenched upon addition to cold methanol (60 μL), containing an internal standard (5 μM) in a separate 96-well polypropylene plate. At the completion of the final time-point, the samples were centrifuged at 4,000 rpm for 5 min at 4° C. The supernatant (40 μL) was withdrawn and transferred to a sample vial with insert. The samples were analyzed by LC-MS. LC-MS analysis was performed on a platform comprising a Thermo Scientific Dionex Ultimate 3000 and a Bruker amaZon SL equipped with an electrospray ionization source controlled by Bruker Hystar 3.2. Chromatographic separation was performed by injecting 5 μL of the sample onto an Agilent Eclipse Plus C18 column (2.1×50 mm, 3.5 μm) maintained at 20° C. The flow rate was maintained at 400 μL/min. The initial flow conditions were 80% solvent A (water containing 0.1% acetic acid) and 20% solvent B (methanol containing 0.1% acetic acid). Solvent B was raised to 80% over 0.50 min by 1.50 min. Solvent B was raised to 100% by 5.00 min and held there for 3.25 min. […] All analogs were detected in positive mode as [M+H]*. The percent of compound remaining at each time-point was calculated as the ratio of the integrated compound peak over the internal standard peak and standardized to the t=0 time-point. Values were plotted in GraphPad Prism 9 and fit with a one phase decay.
as §1, with “and NADPH-regenerating” for “and NADPH regenerating”, “rpm (1872 g)” for “rpm”, “[M+H]*. […]” for “[M+H]*. The percent of compound remaining at each time-point was calculated as the ratio of the integrated compound peak over the internal standard peak and standardized to the t=0 time-point. Values were plotted in GraphPad Prism 9 and fit with a one phase decay.”

[1] = pH 7.4, text, read-out: half-life in mouse liver microsomes
[2] = pH 7.4, independent test I, read-out: t1/2 I
[3] = pH 7.4, independent test II, read-out: t1/2 II
[4] = pH 7.4, independent test III, read-out: t1/2 III

Structure (SMILES) | microsomal stability / half-life, in words | half-life at 20 µM [1] [h] | half-life at 20 µM [2] [h] | half-life at 20 µM [3] [h] | half-life at 20 µM [4] [h]
Cc1noc(-c2ccc(NC3CCCCC3)c(NC3CCCCC3)c2)n1 [PHB4082, N1,N2-dicyclohexyl-4-(3-methyl-1,2,4-oxadiazol-5-yl)benzene-1,2-diamine] | half-lives greater than two hours |  |  |  | 
CCOC(=O)c1ccc(NC2CCCCC2)c(N)c1 [Fer-1, Ferrostatin-1, reference compound] |  | 0.04 |  |  | 
CCC(CC)Nc1cc(-c2nc(C)no2)cnc1NC1CCCCC1 [TH-4-55-2, N^2-cyclohexyl-5-(3-methyl-1,2,4-oxadiazol-5-yl)-N^3-(pentan-3-yl)pyridine-2,3-diamine] | half-life greater than two hours | > 1 | > 2 | > 2 | > 2
Cc1noc(-c2cnc(NC3CCCCC3)c(NC3CCCCC3)c2)n1 [TH-2-31, N^2,N^3-dicyclohexyl-5-(3-methyl-1,2,4-oxadiazol-5-yl)pyridine-2,3-diamine] | the most stable; also recorded: half-life greater than two hours | 0.5 to 1 | > 2 | > 2 | > 2
Cc1noc(-c2cnc(NC3CCCC3)c(NC3CCCC3)c2)n1 [TH-4-67, N^2,N^3-dicyclopentyl-5-(3-methyl-1,2,4-oxadiazol-5-yl)pyridine-2,3-diamine] | half-life greater than two hours | > 1 | > 2 | > 2 | > 2
